assay: in vitro; conditions: human, hela cells, % viability

Compound | viability at 28.5 h, 10 µM
Clc1ccc(CN2CCCN(c3nccc(OCC4COc5ccccc5O4)n3)CC2)cc1Cl (centres unmarked) [CBK083967] | 97.3%
c1cncc(CN2CCCN(c3nccc(OCC4COc5ccccc5O4)n3)CC2)c1 (centres unmarked) [CBK083969] | 112%
Cc1cccc(C)c1NC(=O)CN1CCCN(c2nccc(OCC3COc4ccccc4O3)n2)CC1 (centres unmarked) [CBK083974] | 102%
CCOC(=O)CN1CCCN(c2nccc(OCC3COc4ccccc4O3)n2)CC1 (centres unmarked) [CBK083975] | 100%
N#CCCCN1CCCN(c2nccc(OCC3COc4ccccc4O3)n2)CC1 (centres unmarked) [CBK083977] | 90.2%
c1ccc2c(c1)OCC(COc1ccnc(N3CCCN(CCc4ccc5ccccc5c4)CC3)n1)O2 (centres unmarked) [CBK083983] | 90.7%
COc1ccnc(N2CCCN(CC(N)=O)CC2)n1 [CBK083992] | 87.2%
CS(=O)(=O)N1CC2(CCN(Cc3ccccc3F)CC2)c2ccccc21 [CBK084004] | 103%
CS(=O)(=O)N1CC2(CCN(Cc3ccc([N+](=O)[O-])cc3)CC2)c2ccccc21 [CBK084010] | 104%
CS(=O)(=O)N1CC2(CCN(CCc3c[nH]c4ccccc34)CC2)c2ccccc21 [CBK084017T] | 97.9%
CS(=O)(=O)N1CC2(CCN(CC3CCCCC3)CC2)c2ccccc21 [CBK084018] | 96.8%
Clc1ccc(CN2CCCN(c3nccc(OCC4COc5ccccc5O4)n3)CC2)cc1 (centres unmarked) [CBK084038] | 84.9%
CS(=O)(=O)N1CC2(CCN(Cc3ccc(Cl)c(Cl)c3)CC2)c2ccccc21 [CBK084043] | 102%
Clc1ccc(COc2cc(N3CCCN(CC4CC4)CC3)ncn2)cc1Cl [CBK084070] | 90.8%
Cc1cc(COc2ccnc(N3CCCN(CC4CC4)CC3)n2)no1 [CBK084073] | 91.1%
c1cncc(COc2ccnc(N3CCCN(Cc4ccc5c(c4)OCO5)CC3)n2)c1 [CBK084112] | 92.5%
COc1ccnc(N2CCCN(CCN3CCOCC3)CC2)n1 [CBK084120] | 119%
c1cncc(COc2ccnc(N3CCCN(CCN4CCOCC4)CC3)n2)c1 [CBK084122] | 88.5%
Cc1cc(COc2ccnc(N3CCCN(CCCC#N)CC3)n2)no1 [CBK084144] | 96.8%
COc1ccc(Oc2nccc(N3CCCN(CCc4ccc5ccccc5c4)CC3)n2)cc1OC [CBK084164] | 87%
Cc1cc(COc2nccnc2N2CCN(CC(N)=O)CC2)no1 [CBK084192] | 91%
Cc1cc(COc2nccnc2N2CCN(CCCO)CC2)no1 [CBK084197] | 89.6%
Cc1cc(COc2nccnc2N2CCN(CCCn3c(=O)[nH]c4ccccc43)CC2)no1 [CBK084199] | 107%

Compound | viability at 28.5 h, 10 µM
COc1ccc(CCN2CCN(c3nccnc3OCc3cc(C)on3)CC2)cc1OC [CBK084207] | 105%
COc1nccnc1N1CCN(Cc2ccc(Cl)c(Cl)c2)CC1 [CBK084209] | 92.1%
COc1nccnc1N1CCN(Cc2ccccc2)CC1 [CBK084210] | 90%
COc1nccnc1N1CCN(Cc2cccnc2)CC1 [CBK084213] | 91.2%
COc1nccnc1N1CCN(Cc2ccc([N+](=O)[O-])cc2)CC1 [CBK084217] | 103%
COc1nccnc1N1CCN(CC(=O)Nc2c(C)cccc2C)CC1 [CBK084220] | 89.1%
COc1nccnc1N1CCN(CCCC#N)CC1 [CBK084225] | 86.9%
COc1nccnc1N1CCN(CCSC)CC1 [CBK084227] | 90.2%
COc1nccnc1N1CCN(CCc2ccccc2)CC1 [CBK084228] | 102%
COc1nccnc1N1CCN(CCOc2ccccc2)CC1 [CBK084230] | 94.1%
COc1nccnc1N1CCN(CCc2c[nH]c3ccccc23)CC1 [CBK084231] | 89.2%
COc1nccnc1OC1CCN(Cc2ccccc2)CC1 [CBK084238] | 103%
COc1nccnc1OC1CCN(Cc2ccc(Cl)cc2)CC1 [CBK084240] | 98.7%
COc1nccnc1OC1CCN(Cc2ccc([N+](=O)[O-])cc2)CC1 [CBK084245] | 105%
COc1nccnc1OC1CCN(Cc2ccccc2-c2ccccc2)CC1 [CBK084246] | 87.7%
COc1nccnc1OC1CCN(CC(=O)Nc2c(C)cccc2C)CC1 [CBK084249] | 96.1%
COc1nccnc1OC1CCN(CCCC#N)CC1 [CBK084255] | 90%
COc1nccnc1OC1CCN(CCOc2ccccc2)CC1 [CBK084260] | 94.4%
COc1nccnc1OC1CCN(CCc2c[nH]c3ccccc23)CC1 [CBK084261] | 93.6%
COc1nccnc1OC1CCN(CC2CCCCC2)CC1 [CBK084263] | 96.2%
CS(=O)(=O)Nc1nccnc1N1CCN(Cc2ccccc2)CC1 [CBK084268] | 96.5%
CC(C)c1ccc(CN2CCN(c3nccnc3NS(C)(=O)=O)CC2)cc1 [CBK084271] | 91%
COc1ccc(CN2CCN(c3nccnc3NS(C)(=O)=O)CC2)cc1 [CBK084273] | 88.7%

Compound | viability at 28.5 h, 10 µM
CS(=O)(=O)Nc1nccnc1OC1CCN(CC2CCCCC2)CC1 [CBK084284] | 89.9%
COc1ccc(CCN2CCC(Oc3nccnc3NS(C)(=O)=O)CC2)cc1OC [CBK084285] | 103%
CS(=O)(=O)Nc1nccnc1OC1CCN(CCc2ccccn2)CC1 [CBK084286] | 109%
O=C1CCC(=O)N1CCOc1nccnc1N1CCN(Cc2ccccc2)CC1 [CBK084288] | 87.9%
O=C1CCC(=O)N1CCOc1nccnc1N1CCN(Cc2ccccc2F)CC1 [CBK084289] | 97.8%
O=C1CCC(=O)N1CCOc1nccnc1N1CCN(Cc2ccc(Cl)cc2)CC1 [CBK084290] | 96.1%
N#CCCCN1CCN(c2nccnc2OCCN2C(=O)CCC2=O)CC1 [CBK084299] | 102%
O=C1CCC(=O)N1CCOc1nccnc1N1CCN(CCc2ccccc2)CC1 [CBK084302] | 99.4%
O=C1CCC(=O)N1CCOc1nccnc1N1CCN(CCc2c[nH]c3ccccc23)CC1 [CBK084304] | 95.5%
O=C1CCC(=O)N1CCOc1nccnc1N1CCN(CC2CC2)CC1 [CBK084305] | 93.9%
O=C1CCC(=O)N1CCOc1nccnc1N1CCN(CC2CCCCC2)CC1 [CBK084306] | 88.9%
O=C1CCC(=O)N1CCOc1nccnc1N1CCN(CCc2ccc3ccccc3c2)CC1 [CBK084307] | 96.4%
O=C1CCC(=O)N1CCOc1nccnc1N1CCN(CCc2ccccn2)CC1 [CBK084309] | 109%
Nc1ccc(-c2ccccc2)c2ccccc12 [CBK084312] | 97.1%
Nc1ccc(-c2cc(F)cc(F)c2)c2ccccc12 [CBK084314] | 93.2%
COc1cc(F)ccc1-c1ccc(N)c2ccccc12 [CBK084319] | 103%
Nc1ccc(-c2cccc(C(F)(F)F)c2)c2ccccc12 [CBK084324] | 80%
Nc1ccc(-c2ccc3c(c2)OCCCO3)c2ccccc12 [CBK084325] | 87.9%
CS(=O)(=O)c1ccc(-c2ccc(N)c3ccccc23)cc1 [CBK084326] | 95.4%
COc1cc(-c2ccc(N)c3ccccc23)cc(OC)c1OC [CBK084332] | 83.5%
O=C1CCC(=O)N1CCOc1nccnc1OC1CCN(Cc2ccc(C(F)(F)F)cc2)CC1 [CBK084341] | 96%
N#CCCCN1CCC(Oc2nccnc2OCCN2C(=O)CCC2=O)CC1 [CBK084349] | 99.4%
O=C1CCC(=O)N1CCOc1nccnc1OC1CCN(CCCn2c(=O)[nH]c3ccccc32)CC1 [CBK084350] | 90.2%

Compound | viability at 28.5 h, 10 µM
CSCCN1CCC(Oc2nccnc2OCCN2C(=O)CCC2=O)CC1 [CBK084351] | 100%
O=C1CCC(=O)N1CCOc1nccnc1OC1CCN(CCc2c[nH]c3ccccc23)CC1 [CBK084355] | 94.6%
O=C1CCC(=O)N1CCOc1nccnc1OC1CCN(CC2CCCCC2)CC1 [CBK084357] | 105%
O=C1CCC(=O)N1CCOc1nccnc1OC1CCN(CCc2ccc3ccccc3c2)CC1 [CBK084358] | 99.4%
O=C1CCC(=O)N1CCOc1nccnc1OC1CCN(CCc2ccccn2)CC1 [CBK084360] | 99.5%
O=[N+]([O-])c1ccc(CN2CCC(Oc3cncc(OCC4COc5ccccc5O4)n3)C2)cc1 (centres unmarked) [CBK084369] | 99.3%
Fc1ccc(CCN2CCC(Oc3cncc(OCC4COc5ccccc5O4)n3)C2)cc1 (centres unmarked) [CBK084383] | 99.8%
CCOC(=O)CN1CCC(Oc2cncc(Oc3ccc(OC)c(OC)c3)n2)C1 (centres unmarked) [CBK084405] | 91.3%
COc1ccc(Oc2cncc(OC3CCN(CC4CCCCC4)C3)n2)cc1OC (centres unmarked) [CBK084413] | 96.4%
CCN(CC)C(=O)CN1CCC(Oc2cncc(OCc3ccc(Cl)c(Cl)c3)n2)C1 (centres unmarked) [CBK084431] | 98.2%
CCOC(=O)CN1CCC(Oc2cncc(OCc3ccc(Cl)c(Cl)c3)n2)C1 (centres unmarked) [CBK084432] | 91.7%
Clc1ccc(CN2CCC(Oc3cncc(OCc4cccnc4)n3)C2)cc1 (centres unmarked) [CBK084451] | 104%
O=[N+]([O-])c1ccc(CN2CCC(Oc3cncc(OCc4cccnc4)n3)C2)cc1 (centres unmarked) [CBK084456] | 91.6%
c1cncc(COc2cncc(OC3CCN(Cc4ccc5c(c4)OCO5)C3)n2)c1 (centres unmarked) [CBK084458] | 88.9%
CCOC(=O)CN1CCC(Oc2cncc(OCc3cccnc3)n2)C1 (centres unmarked) [CBK084462] | 99.4%
c1cncc(COc2cncc(OC3CCN(CCN4CCOCC4)C3)n2)c1 (centres unmarked) [CBK084463] | 99.7%
OCCCN1CCC(Oc2cncc(OCc3cccnc3)n2)C1 (centres unmarked) [CBK084465] | 91.7%
N#CCCCN1CCC(Oc2cncc(OCc3cccnc3)n2)C1 (centres unmarked) [CBK084466] | 105%
Fc1ccc(CCN2CCC(Oc3cncc(OCc4cccnc4)n3)C2)cc1 (centres unmarked) [CBK084469] | 97.8%
Fc1ccccc1CN1CCC(Oc2cncc(OCCN3CCOCC3)n2)C1 (centres unmarked) [CBK084479] | 94.9%

Reference: article PMC12040169 (PLOS Biology, 2025)
